The source of these data is PubChem BioAssay (NCI).

The structures appear in SMILES notation. “And” between values parts separate entries of the source, which are not always exact repeats. Identical values can stand only once.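 In this assay, cells in 96-well plates receive the compound at five concentrations for 48 hours. Endpoints are linearly interpolated between the surrounding concentrations. GI50 marks 50% less growth. The concentration for full growth arrest is given as TGI.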 Where only a bound is given, the exact number is not on record here.

Common to all, as to assay: NCI anticancer screen, dose series, 48 h
The test system of test [1] is SF-295 CNS.
Test [2] deals with TK-10 renal.
Test [3] relates to A498 renal.
For test [4], the system named is IGROV1 ovarian.
Test [5] deals with SR leukemia.
Test [6] has as its system MOLT-4 leukemia.
The test system of test [7] is 786-0 renal.
For test [8], the system named is SNB-19 CNS.
The test system of test [9] is HCT-116 colon.
Test [10] has as its system SNB-75 CNS.
The test system of test [11] is NCI/ADR-RES ovarian.
The test system of test [12] is HL-60(TB) leukemia.
Test [13] concerns NCI-H460 lung.
For test [14], the system named is CAKI-1 renal.

For the molecule `CSC1=N/C(=C\c2ccco2)C(=O)N1CN1CCCCC1`, the TGI in test [1], in test [2], in test [3], in test [4], in [5] and in test [6] was more than 100 µM throughout. Moreover, the TGI in test [7], in test [8], in test [9], in [10] and in test [11] was more than 100 µM in each case.
`O=C(C1C(c2ccccc2)N1C(c1ccccc1)c1ccccc1)C1C(c2ccccc2)N1C(c1ccccc1)c1ccccc1` (centres undefined): the TGI is more than 100 µM in [1]; 60.9 µM in test [2]; 12 µM in test [12]; 16.6 µM in test [5]; 33.4 µM in test [6]; 48.2 µM in test [7]. Moreover, the TGI in [8] is more than 100 µM; in test [13] it was 29.5 µM; in test [9], 15.8 µM; in test [10] it was more than 100 µM; in test [11], more than 100 µM.
Take `CCCCCCCCC/C=C1\CC(CO)(COC(=O)C2CCCCC2)OC1=O` (centres undefined): the TGI in test [1] is 34.1 µM; in test [2], 49.8 µM; in test [3] it was 50.6 µM; in test [4], 37.7 µM; in [5], more than 100 µM; in [6] it was 57.6 µM. Besides, the TGI in [7] was 32.1 µM; in test [8], 40.9 µM; in test [14], 49.3 µM; in [13] it was 57.1 µM; in [9], 44.5 µM; in [10], 32.9 µM. The molecule also yielded a TGI in test [11] of 38.1 µM.
In the case of `[O-][n+]1onc(-c2ccccc2)c1CN1CCOCC1`, the TGI in test [1] is more than 100 µM; in [2], more than 100 µM; in test [3], more than 100 µM; in test [12], more than 100 µM; in [4], more than 100 µM; in [6] it was 94.1 µM. Besides, the TGI in [7], in test [8], in test [14], in [13], in test [9] and in [10] was more than 100 µM throughout. The TGI in [11] was more than 100 µM.
With `COC(=O)C(=O)C(C(=O)C(=O)Nc1ccccc1C(C)=O)c1nc2ccc(C(=O)c3ccccc3)cc2[nH]c1=O` (centres undefined), the TGI in test [1], in test [2], in test [3], in test [12], in test [4] and in [6] was more than 100 µM each time. In addition, the TGI in test [7], in test [8], in test [14], in [13], in [9] and in test [10] was more than 100 µM each time. This molecule also came in with a TGI in test [11] of more than 100 µM.
Turning to `Nc1cn(Cc2ccccc2)c2nc(/C=C3/C=CC=CC3=O)c(O)n12`, the TGI in test [1], in [2], in [3], in [12], in test [4] and in [6] was more than 100 µM each time. The TGI in [7], in [8], in test [14], in test [13], in test [9] and in [10] was more than 100 µM in each case. The same molecule had a TGI in test [11] of more than 100 µM.
As for `COc1ccc(NC(C)=O)cc1C1CCC(=O)N1` (centres undefined), the TGI in test [1], in [2], in [3], in test [12], in [4] and in [6] was more than 100 µM in each case. Besides, the TGI in [7], in test [8], in test [14], in test [13], in [9] and in test [10] was more than 100 µM in each case. In [11], this molecule displayed a TGI of more than 100 µM.
With `COC(=O)C1=C(\c2ccccc2)c2ccccc2C(=O)N(C2CCCCC2)/C=C\1`, the TGI in [1], in test [2], in test [3], in test [12], in test [4] and in [6] was more than 100 µM in each case. Besides, the TGI in test [7] was more than 100 µM; in [8], more than 100 µM; in test [14], 54.6 µM; in test [13], 65.7 µM; in test [9], 64 µM; in [10], more than 100 µM. The TGI in [11] is more than 100 µM.
`N#Cc1c(Cl)/c(=C/O)c(=O)n2c1nc1ccccc12`: the TGI in test [1] was more than 100 µM; in [2], more than 100 µM; in test [3], 72.1 µM; in [12], 89.6 µM; in [4], more than 100 µM; in [6], 96.5 µM. Also, the TGI in test [7], in [8], in test [14], in test [13], in [9] and in test [10] was more than 100 µM throughout. In addition, in test [11], the TGI was more than 100 µM.
In the case of `CC(=O)N(CCc1ccccc1)C(C#N)c1ccc(OCCCCCCCCCCOc2ccc(C(C#N)N(CCc3ccccc3)C(C)=O)cc2)cc1` (centres undefined), the TGI in test [1] is 51.6 µM; in test [2], more than 100 µM; in test [3] it was 92.6 µM; in test [12] it was more than 100 µM; in test [4] it was more than 100 µM; in test [6] it was more than 100 µM. The TGI was 50 µM in test [7]; 88.1 µM in [8]; more than 100 µM in test [14]; more than 100 µM in [13]; more than 100 µM in test [9]; 38.3 µM in test [10]. Besides, in test [11], the TGI is more than 100 µM.
`O=C1c2ccccc2C2=Nc3ccncc3CN12`: the TGI in [1], in test [2], in [12], in test [4], in test [5] and in test [6] was more than 100 µM throughout. Further, the TGI in test [7], in test [8], in test [14], in test [13], in [9] and in [10] was more than 100 µM in each case. In addition, the TGI in [11] is more than 100 µM.
Take `COc1cc(C2c3cc4c(cc3OC(Nc3ccccc3)C2C)OCO4)cc(OC)c1OC` (centres undefined): the TGI in [1] is 3.52 µM; in [2], more than 100 µM; in test [3], 1.69 µM; in test [12] it was 0.593 µM; in test [4], more than 100 µM; in test [6] it was 8.28 µM. The TGI was more than 100 µM in [7]; more than 100 µM in [8]; more than 100 µM in test [14]; more than 100 µM in [13]; more than 33 µM in test [9]; 99.2 µM in test [10]. Besides, in test [11], the TGI is more than 100 µM.
With `Cc1nn(-c2ccccc2)c2[nH]c(=S)cnc12`, the TGI in test [1], in test [2], in test [3], in test [12], in test [4] and in test [5] was more than 100 µM in each case. Further, the TGI in [6], in test [7], in test [8], in test [14], in test [13] and in test [9] was more than 100 µM each time. This molecule also displayed a TGI in [11] of more than 100 µM.
As for `CN(C(=O)Cc1ccc(Cl)c(Cl)c1)[C@@H]1CCCC[C@H]1[N+]1(C)CC=CC1`, the TGI in test [1], in test [2], in test [3], in [12], in test [4] and in test [5] was more than 100 µM throughout. Moreover, the TGI in test [6], in test [7], in test [8], in test [14], in test [9] and in [11] was more than 100 µM each time.
As for `O=C(O)c1ccc2c(c1)CC1(C2)Cc2ccccc2C1=O` (centres undefined), the TGI in test [1], in test [2], in test [12], in [4], in [5] and in test [6] was more than 100 µM in each case. The TGI in [7], in test [8], in test [13], in test [9], in test [10] and in test [11] was more than 100 µM throughout.
With `CCOC(=O)c1c(-c2ccc(O)c(OC)c2)c(C#N)c(=S)n(C2OC(COC(C)=O)C(OC(C)=O)C(OC(C)=O)C2OC(C)=O)c1-c1ccccc1` (centres undefined), the TGI in test [1] was more than 100 µM; in [3], more than 100 µM; in test [12], more than 100 µM; in test [4], 55.5 µM and > 100 µM; in [5], more than 100 µM; in test [6], more than 100 µM. Besides, the TGI in [7], in test [8], in [14], in test [13], in [9] and in test [11] was more than 100 µM each time. In addition, in test [4], the GI50 was 18 µM and 79.7 µM.
As to `CCCCCCCCCCCCC(O)C1CCC(C(O)CCCCCCC(O)CCCCCCCC2=CC(C)OC2=O)O1` (centres undefined), the GI50 in [1] was 17.5 µM; in test [12], 852 nM; in test [6], 3.17 µM; in test [10], 74.5 µM; in test [11] it was 31.5 µM. In addition, the TGI in test [1] is more than 100 µM; in test [2] it was more than 100 µM; in test [3], more than 100 µM; in test [12] it was 62.8 µM; in [4], more than 100 µM; in test [6], 33 µM. Also, the TGI is more than 100 µM in test [7]; more than 100 µM in test [8]; 71.9 µM in test [14]; more than 100 µM in [13]; more than 100 µM in test [9]; more than 100 µM in [10]. The TGI in test [11] was more than 100 µM.
Regarding `Fc1ccccc1-c1nn2c(C34CC5CC(CC(C5)C3)C4)nnc2s1`, the TGI in test [1], in [3], in [4], in test [5], in test [6] and in [7] was more than 100 µM each time. Besides, the TGI in [8], in test [14], in [13], in test [9], in [10] and in [11] was more than 100 µM in each case.
Turning to `O=C(CCc1ccc(O)cc1)NCCc1cccc(OCc2ccccc2)c1`, the TGI in test [1] is more than 100 µM; in [2], 79.5 µM; in [3], more than 100 µM; in test [12] it was 50 µM; in test [4], more than 100 µM; in test [5] it was 36.5 µM. The TGI in test [6] was 48.4 µM; in test [7] it was more than 100 µM; in test [8] it was more than 100 µM; in test [14], more than 100 µM; in test [13], 66.6 µM; in [9], 50.6 µM. In test [11], this molecule came in with a TGI of more than 100 µM.
For the molecule `COc1ccc2c(c1)CCc1[nH]c3ccccc3c1CCCC2`, the TGI in test [1], in [2], in test [12], in test [4], in [5] and in test [6] was more than 10 µM throughout. The TGI in test [7], in [8], in test [14], in test [9], in [10] and in [11] was more than 10 µM throughout.
As to `COc1ccc(/C=C2\CCCCCC2=O)cc1`, the TGI in [1], in test [2], in test [3], in test [4], in [5] and in test [6] was more than 100 µM in each case. For the same molecule, the TGI in test [7], in [8], in [14], in test [13], in test [9] and in test [11] was more than 100 µM throughout.
